Assay results taken from paper PMC5431190, “Investigation of cationicity and structure of pseudin-2 analogues for enhanced bacterial selectivity and anti-inflammatory activity” (Scientific Reports, 2017).
In brackets after ≈: the same amount, converted by molar mass. Residues, ends and D or L forms follow the SMILES beside them.

Experiments:
[1] = system: mouse bone marrow-derived dendritic cells; details: 50 μM peptide, MTT, 18 h at 37 °C
Protocol: (§2) The MTT assay was used to determine the cytotoxicity of each peptide against mouse macrophage RAW264.7 cells and mouse bone marrow-derived dendritic cells. Bone marrow was isolated from 6-week-old female C57BL mice. Red blood cell lysis buffer (Sigma) was used to lyse red blood cells in the bone marrow. Then, the bone marrow was cultured in RPMI 1640 containing 10% foetal bovine serum and 20 ng/ml GM-CSF. After three days, floating cells were gently removed, and fresh medium was added. Dendritic cells were extracted three days later. Cells were cultured on 96-well plates at a density of 1 × 10^4 cells/well in RPMI 1640 containing 10% foetal bovine serum. Different concentrations of peptides were added and incubated for 18 h at 37 °C. Subsequently, 20 μl of MTT (5 mg/ml) was added to each well and then incubated for 4 h at 37 °C. An ELISA reader was used to measure the absorbance at 570 nm. A 100% cytotoxic control was generated by treatment with 0.1% Triton X-100.

[2] = system: Salmonella typhimurium CCARM 8007 (MDRST 8007); assay type: cell-based; details: multidrug-resistant strain; 1% peptone media, 16 h at 37 °C
From the text: (§1) Four Gram-negative bacteria species (Escherichia coli KCTC 1682, Acinetobacter baumannii KCTC 2508, Pseudomonas aeruginosa KCTC 1637 and Salmonella typhimurium KCTC 1926) and three Gram-positive bacteria species (Staphylococcus aureus KCTC 1621, Bacillus subtilis KCTC 3028 and Staphylococcus epidermidis KCTC 1917) were procured from the Korean Collection for Type Cultures (KCTC). Multi-drug-resistant Gram-negative bacteria (Salmonella typhimurium CCARM 8003 and 8007, Escherichia coli CCARM 1229 and 1238, Pseudomonas aeruginosa CCARM 2002 and 2095 and Acinetobacter baumannii CCARM 12035 and 12036) were obtained from the Culture Collection of Antibiotic-Resistant Microbes (CCARM). To determine MICs, bacteria were cultured in Luria-Bertani (LB) medium for overnight at 37 °C. An aliquot of the culture was incubated in 1% peptone media at 37 °C until mid-log phase. 100 μl of serial 2-fold diluted peptides were treated in 96 well plates and added to 100 μl of 2 × 10^6 CFU/ml bacterial suspensions in 1% peptone media for 16 h at 37 °C.

[3] = system: Escherichia coli CCARM 1229 (MDREC 1229); assay type: cell-based; details: multidrug-resistant strain; 1% peptone media, 16 h at 37 °C
From the text: as §1

[4] = system: Acinetobacter baumannii KCTC 2508; assay type: cell-based; details: KCTC 2508, 16 h
From the text: as §1

[5] = system: Pseudomonas aeruginosa KCTC 1637; assay type: cell-based; details: KCTC 1637, 16 h
From the text: as §1

[6] = system: Gram-negative bacteria (E. coli, A. baumannii, P. aeruginosa, S. typhimurium); assay type: cell-based; details: 16 h
From the text: as §1

[7] = system: Acinetobacter baumannii CCARM 12036 (MDRAB 12036); assay type: cell-based; details: multidrug-resistant strain; 1% peptone media, 16 h at 37 °C
From the text: as §1

[8] = system: Acinetobacter baumannii CCARM 12035 (MDRAB 12035); assay type: cell-based; details: multidrug-resistant strain; 1% peptone media, 16 h at 37 °C
From the text: as §1

[9] = system: Pseudomonas aeruginosa CCARM 2095 (MDRPA 2095); assay type: cell-based; details: multidrug-resistant strain; 1% peptone media, 16 h at 37 °C
From the text: as §1

[10] = system: Gram-positive bacteria (S. aureus, B. subtilis, S. epidermidis); assay type: cell-based; details: 16 h
From the text: as §1

[11] = system: Escherichia coli CCARM 1238 (MDREC 1238); assay type: cell-based; details: multidrug-resistant strain; 1% peptone media, 16 h at 37 °C
From the text: as §1

[12] = system: Staphylococcus aureus KCTC 1621; assay type: cell-based; details: KCTC 1621, 16 h
From the text: as §1

[13] = system: Salmonella typhimurium KCTC 1926; assay type: cell-based; details: KCTC 1926, 16 h
From the text: as §1

[14] = system: Salmonella typhimurium CCARM 8003 (MDRST 8003); assay type: cell-based; details: multidrug-resistant strain; 1% peptone media, 16 h at 37 °C
From the text: as §1

[15] = system: Staphylococcus epidermidis KCTC 1917; assay type: cell-based; details: KCTC 1917, 16 h
From the text: as §1

[16] = system: Bacillus subtilis KCTC 3028; assay type: cell-based; details: KCTC 3028, 16 h
From the text: as §1

[17] = system: Pseudomonas aeruginosa CCARM 2002 (MDRPA 2002); assay type: cell-based; details: multidrug-resistant strain; 1% peptone media, 16 h at 37 °C
From the text: as §1

[18] = system: Escherichia coli KCTC 1682; assay type: cell-based; details: KCTC 1682, 16 h
From the text: as §1

[19] = system: human red blood cells (hRBCs); assay: Haemolytic activity; assay type: cell-based; details: red cells of human, 1 h
Protocol: Peptide-induced lysis of human red blood cells (hRBCs) was determined as follows. Fresh hRBCs were washed 2–3 times with phosphate-buffered saline (PBS) by centrifugation for 5 min at 2500 rpm at 4 °C. Peptides in PBS were incubated with 4% (v/v) hRBCs for 1 h at 37 °C. Samples were then centrifuged for 5 min at 1000 × g. The absorbance of the supernatant at 405 nm was used as a measure of haemolysis. As a positive control, 100% haemolysis was obtained by treating hRBCs with 0.1% Triton X-100.

[20] = system: mouse macrophage RAW264.7 cells; details: 50 μM peptide, MTT, 18 h at 37 °C
Protocol: as §2

[21] = system: S. aureus 3126(R) (MRSA 3126); assay type: cell-based, Staphylococcus aureus; details: multidrug-resistant strain; 1% peptone media, 16 h at 37 °C
[22] = system: S. aureus 3089(R) (MRSA 3089); assay type: cell-based, Staphylococcus aureus; details: multidrug-resistant strain; 1% peptone media, 16 h at 37 °C
[23] = system: S. aureus 3108(R) (MRSA 3108); assay type: cell-based, Staphylococcus aureus; details: multidrug-resistant strain; 1% peptone media, 16 h at 37 °C

SMILES	MIC, MDRST 8007 [2] [µM]	MIC, MDREC 1229 [3] [µM]	MIC, A. baumannii [4] [µM]	MIC, P. aeruginosa [5] [µM]	Average MIC, Gram-negative [6] [µM]	MIC, MDRAB 12036 [7] [µM]	MIC, MDRAB 12035 [8] [µM]	MIC, MDRPA 2095 [9] [µM]	Average MIC, Gram-positive [10] [µM]	MIC, MDREC 1238 [11] [µM]	MIC, S. aureus [12] [µM]	MIC, S. typhimurium [13] [µM]	MIC, MDRST 8003 [14] [µM]	MIC, S. epidermidis [15] [µM]	MIC, B. subtilis [16] [µM]	MIC, MDRPA 2002 [17] [µM]	MIC, E. coli [18] [µM]	MHC (minimal peptide concentration that produces haemolysis) [19] [µM]	MIC, MRSA 3126 [21] [µM]	MIC, MRSA 3089 [22] [µM]	also measured
CC[C@H](C)[C@H](NC(=O)CNC(=O)[C@H](CCC(N)=O)NC(=O)[C@H](Cc1ccccc1)NC(=O)[C@@H](NC(=O)[C@H](CCCCN)NC(=O)[C@H](CCCCN)NC(=O)[C@H](CC(C)C)NC(=O)[C@H](C)NC(=O)[C@H](CC(N)=O)NC(=O)[C@H](CC(C)C)NC(=O)CN)C(C)C)C(=O)N[C@@H](Cc1c[nH]cn1)C(=O)N[C@@H](CCC(=O)O)C(=O)N[C@@H](C)C(=O)N[C@H](C(=O)N[C@@H](CCCCN)C(=O)N[C@@H](CC(C)C)C(=O)N[C@H](C(=O)N[C@@H](CC(N)=O)C(=O)N[C@@H](CC(N)=O)C(=O)N[C@@H](Cc1c[nH]cn1)C(=O)N[C@H](C(=O)N[C@@H](CCC(N)=O)C(=O)O)C(C)C)[C@@H](C)CC)[C@@H](C)CC [Ps, Pseudin-2] (H-GLNALKKVFQGIHEAIKLINNHVQ-OH)	2 (≈ 5.37 µg/mL)	2 (≈ 5.37 µg/mL)	1 (≈ 2.69 µg/mL)	2 (≈ 5.37 µg/mL)	1.5	2 (≈ 5.37 µg/mL)	1 (≈ 2.69 µg/mL)	2 (≈ 5.37 µg/mL)	4	1 (≈ 2.69 µg/mL)	4 (≈ 10.7 µg/mL)	2 (≈ 5.37 µg/mL)	4 (≈ 10.7 µg/mL)	4 (≈ 10.7 µg/mL)	4 (≈ 10.7 µg/mL)	2 (≈ 5.37 µg/mL)	1 (≈ 2.69 µg/mL)	25	4 (≈ 10.7 µg/mL)	4 (≈ 10.7 µg/mL)	survival of dendritic cells [1]: 44%; haemolysis at 100 μM [19]: approximately 23%; survival of RAW264.7 cells [20]: 56%; MIC, MRSA 3108 [23]: 4 µM (≈ 10.7 µg/mL)
CC[C@H](C)[C@H](NC(=O)CNC(=O)[C@H](CCC(N)=O)NC(=O)[C@H](Cc1ccccc1)NC(=O)[C@@H](NC(=O)[C@H](CCCCN)NC(=O)[C@H](CCCCN)NC(=O)[C@H](CC(C)C)NC(=O)[C@H](C)NC(=O)[C@H](CC(N)=O)NC(=O)[C@H](CC(C)C)NC(=O)CN)C(C)C)C(=O)N[C@@H](Cc1c[nH]cn1)C(=O)N[C@@H](CCC(=O)O)C(=O)N[C@@H](C)C(=O)N[C@H](C(=O)N[C@@H](CCCCN)C(=O)N[C@@H](CCCCN)C(=O)N[C@H](C(=O)N[C@@H](CC(N)=O)C(=O)N[C@@H](CC(N)=O)C(=O)N[C@@H](Cc1c[nH]cn1)C(=O)N[C@H](C(=O)N[C@@H](CCC(N)=O)C(=O)O)C(C)C)[C@@H](C)CC)[C@@H](C)CC [Ps-K18] (H-GLNALKKVFQGIHEAIKKINNHVQ-OH)	4 (≈ 10.8 µg/mL)	4 (≈ 10.8 µg/mL)	2 (≈ 5.4 µg/mL)	2 (≈ 5.4 µg/mL)	2.5	4 (≈ 10.8 µg/mL)	4 (≈ 10.8 µg/mL)	2 (≈ 5.4 µg/mL)	10.67	2 (≈ 5.4 µg/mL)	16 (≈ 43.2 µg/mL)	4 (≈ 10.8 µg/mL)	4 (≈ 10.8 µg/mL)	8 (≈ 21.6 µg/mL)	8 (≈ 21.6 µg/mL)	2 (≈ 5.4 µg/mL)	2 (≈ 5.4 µg/mL)	100	16 (≈ 43.2 µg/mL)	16 (≈ 43.2 µg/mL)	haemolysis at 100 μM [19]: 0.5%; MIC, MRSA 3108 [23]: 32 µM (≈ 86.4 µg/mL)
CC[C@H](C)[C@H](NC(=O)[C@H](C)NC(=O)[C@H](CCC(=O)O)NC(=O)[C@H](Cc1c[nH]cn1)NC(=O)[C@@H](NC(=O)[C@@H]1CCCN1C(=O)[C@H](CCC(N)=O)NC(=O)[C@H](Cc1ccccc1)NC(=O)[C@@H](NC(=O)[C@H](CCCCN)NC(=O)[C@H](CCCCN)NC(=O)[C@H](CC(C)C)NC(=O)[C@H](C)NC(=O)[C@H](CC(N)=O)NC(=O)[C@H](CC(C)C)NC(=O)CN)C(C)C)[C@@H](C)CC)C(=O)N[C@@H](CCCCN)C(=O)N[C@@H](CC(C)C)C(=O)N[C@H](C(=O)N[C@@H](CC(N)=O)C(=O)N[C@@H](CC(N)=O)C(=O)N[C@@H](Cc1c[nH]cn1)C(=O)N[C@H](C(=O)N[C@@H](CCC(N)=O)C(=O)O)C(C)C)[C@@H](C)CC [Ps-P] (H-GLNALKKVFQPIHEAIKLINNHVQ-OH)	8 (≈ 21.8 µg/mL)	8 (≈ 21.8 µg/mL)	8 (≈ 21.8 µg/mL)	16 (≈ 43.6 µg/mL)	10	8 (≈ 21.8 µg/mL)	8 (≈ 21.8 µg/mL)	16 (≈ 43.6 µg/mL)	32	8 (≈ 21.8 µg/mL)	32 (≈ 87.2 µg/mL)	8 (≈ 21.8 µg/mL)	16 (≈ 43.6 µg/mL)	32 (≈ 87.2 µg/mL)	32 (≈ 87.2 µg/mL)	16 (≈ 43.6 µg/mL)	8 (≈ 21.8 µg/mL)	400	32 (≈ 87.2 µg/mL)	32 (≈ 87.2 µg/mL)	haemolysis at 400 μM [19]; 400: 0.5%; MIC, MRSA 3108 [23]: 32 µM (≈ 87.2 µg/mL)
